The test system of the experiment is H. pylori Sydney strain 1 (HPSS1). Nature of the experiment: In vitro bactericidal activity against H. pylori. It is filed as cell-based. The conditions noted are these: Helicobacter pylori; kills 3 logs (99.9%) of bacteria; samples pretreated in 0.1 N HCl 1 h; 24 h incubation; read-out: minimal bactericidal concentration (MBC). On the procedure:
To mimic the gastric environment, for example, samples were treated in 0.1 N HCl for 1 h prior to incubation with bacteria. This also ensured the dissolution of micromotors and consecutive drug release. […] Specifically, it was determined that the minimal bactericidal concentration (MBC) values of the samples, defined as the minimal concentration of an antimicrobial agent that kills 3 logs (99.9%) of the bacteria. […] Moreover, bare Mg-based micromotors with corresponding amount of motors were used as negative controls. […] Overall, FIG. 13D verifies that the activity of the loaded drug was not compromised compared to free drug. The example findings validate the potential use of these drug-loaded micromotors for therapeutic applications. In Vitro Anti-H. pylori Activity. H. pylori Sydney strain 1 (HPSS1) was cultured from frozen stock and routinely maintained on Columbia agar supplemented with 5% (vol/vol) laked horse blood at 37° C. under microaerobic conditions (e.g., 10% CO2, 85% N2, and 5% 02). For example, broth cultures of H. pylori were prepared by subculturing fresh colonies from agar plates into Brain heart infusion (BHI) supplemented with 5% fetal bovine serum (FBS) and incubated overnight at 37° C. under microaerobic conditions with moderate reciprocal shaking. […] The plates were cultured for 4 days before the colony-forming unit (CFU) of H. pylori was quantified. […]

These results are taken from patent publication US12016948B2, “Micromotors and nanomotors for gastrointestinal diagnosis and treatment applications” (The Regents of the University of California, priority 2017, dated 2024).

The structures appear in SMILES notation. ≈ marks a conversion by molar mass, not a printed value.

`CC[C@H]1OC(=O)[C@H](C)[C@@H](O[C@H]2C[C@@](C)(OC)[C@@H](O)[C@H](C)O2)[C@H](C)[C@@H](O[C@@H]2O[C@H](C)C[C@H](N(C)C)[C@H]2O)[C@](C)(OC)C[C@@H](C)C(=O)[C@H](C)[C@@H](O)[C@]1(C)O` [free CLR, clarithromycin]: the MBC was found to be 0.25 µg/mL (≈ 0.334 µM).
